Assays:
[1] = system: SiHa-F3 cells; assay: Tumor cell migration in a Boyden chamber; type: cell-based, human; conditions: for migration of the cancer cells (% of the control): Boyden chamber, 16 h, 100 nM to 1 mM
Procedure: Tests of cell migration and of survival of the treated cells were carried out with a model of super-invasive tumor cells obtained from a human cervical adenocarcinoma cell line, SiHa. The selection of the super-invasive SiHa-F3 cells (F3 on the graphs) was carried out after three consecutive invasions in vitro in permeable supports of Transwell® type coated with Matrigel® (Porporato P E et al., Cell Rep 2014, 8:754-766). […] The actual migration of the tumor cells was measured in a Boyden chamber with 50 000 cells per well and 0.15% of fetal bovine serum (FBS) used as chemoattractant. The pore diameters of the porous membrane separating the two compartments of the Boyden chamber were fixed at 8 μm. After 16 hours of migration, the cells were first fixed with methanol for 3 min and then stained with crystal violet. The culture medium used was DMEM 4.5 g/l of glucose, GlutaMAX®, 1% of a solution of penicillin/streptomycin and 10% of fetal bovine serum. Cell migration measurements: A 48-well reusable Boyden chamber (Neuroprobe) was used according to the manufacturer's instructions. Briefly, medium containing 0.15% of fetal bovine serum served as chemoattractant in the lower compartment, a polycarbonate membrane pierced with pores 8 μm in diameter separated the two compartments, and 50 000 SiHa-F3 cells in suspension in the presence of the indicated compounds were introduced into the upper compartment. The migration of the cells was quantified after an overnight period (16 h). The cells, having migrated, were fixed for 3 min in methanol, stained with 0.23% crystal violet for 30 min, and counted on photographs taken at a magnification of ×2.5 using an inverted-phase microscope (Axiovert and Mrc camera, Zeiss). […] Results were expressed as % of the control.

[2] = system: B16F10 murine melanoma cells; assay: Model of experimental lung metastases: pretreated B16F10 cells injected into the caudal vein; type: in vivo, C57BL/6 mice; conditions: B16F10 cells pretreated with rotenone 10 nM + 10 μM compound, 14 days after injection
Description: The B16F10 tumor cells come from the ATCC collection. The male 6- or 7-week-old C57BL/6 mice were acquired from the Janvier laboratories, and the protocols were applied with the agreement of the UCL ethics committee and while adhering to Belgian laws relating to animal care. Model of experimental metastases: the B16F10 cells were pretreated with DMSO (0.5%, rotenone carrier, negative control) or rotenone (respiratory chain complex I inhibitor and mitochondrial superoxide inducer as described in Porporato P E et al., Cell Rep 2014, 8:754-766, positive control), alone or in combination with the indicated compounds for 6 h. The cells were then detached, counted and resuspended in a proportion of 10×10^6 cells/ml in HBSS without calcium or magnesium. 10^6 cells (i.e. 100 μl of the suspension) were then injected into the caudal vein of C57BL/6 mice. 14 days after injection of the cells, the mice were sacrificed, the lungs were isolated and the metastases (spots positive for melanin) were counted under a dissection microscope.

[3] = system: SiHa-F3 cells; assay: Cell survival of SiHa-F3 tumor cells (crystal violet or MTT); type: cell-based, human; conditions: 1 μM
Procedure: Tests of cell migration and of survival of the treated cells were carried out with a model of super-invasive tumor cells obtained from a human cervical adenocarcinoma cell line, SiHa. The selection of the super-invasive SiHa-F3 cells (F3 on the graphs) was carried out after three consecutive invasions in vitro in permeable supports of Transwell® type coated with Matrigel® (Porporato P E et al., Cell Rep 2014, 8:754-766).
The cell survival, in order to exclude any toxic effect of the products tested, was estimated either on the basis of the quantification of the cells stained with crystal violet, or by measuring the mitochondrial succinate dehydrogenase (SDH) activity on the reduction of the MTT tetrazolium salt (suspension of formazan obtained in DMSO and measurement of absorbance at 570 nm).
Measurement of cell viability: 20 000 SiHa-F3 cells were seeded and treated with the indicated compounds overnight (16 h). The cells were then fixed for 3 min with methanol, stained with 0.23% crystal violet, and resuspended in DMSO in order to measure the absorbance at 595 nm (Victor X4 spectrophotometer, Perkin Elmer); or alternatively incubated for 3 h at 37° C. in a saturating solution of MTT in HBSS containing 10 mM of HEPES, and resuspended in DMSO in order to measure the absorbance at 630 nm (Victor X4 spectrophotometer, Perkin Elmer). […]

[4] = system: SiHa-F3 cells; assay: Level of reactive oxygen species (ROSs), DCFDA technique; type: cell-based, human; conditions: 1 μM, 60 minutes of pretreatment
Procedure: Moreover, an evaluation of the impact of the products tested on the level of reactive oxygen species (ROSs) observed was carried out according to the DCFDA technique after 60 minutes of pretreatment of the SiHa-F3 metastatic progenitor cells with the products tested. Measurement of total cell ROSs: 20 000 SiHa-F3 cells were seeded before being treated for 1 h with the compounds indicated. The cells were then incubated for 30 min at 37° C. in a 1 μM solution of H2-DCFDA (Invitrogen) in HBSS containing 10 mM of HEPES, before measurement of the absorbance at 535 nm (Victor X4 spectrophotometer, Perkin Elmer).

[5] = system: melanoma cells; conditions: mice having received cancer cells by intravenous injection; cited from earlier work
[6] = compared with epigallocatechin-3-gallate (EGCG); cited from earlier work

Row | SMILES | migration of the cancer cells (% of the control) [1] | formation of lung metastases [2] | survival of the tumor cells [3] | decrease in the number of tumor cells migrating from one compartment to the other of the Boyden cell ([1]; 1 μM, 16 hours of migration) | reduction in the level of reactive oxygen species (ROSs) produced by the cells [4] | melanoma cell invasion [5] | anti-proliferative effect [6]
1 | O=C(O[C@@H]1Cc2c(O)cc(O)cc2O[C@@H]1c1cc(O)c(O)c(O)c1)c1cc(O)c(O)c(O)c1 [epigallocatechin gallate] | inhibit the migration of the cancer cells | not Epigallocatechin Gallate Reduces the Formation of Lung Metastases |  |  |  |  | 
2 | Oc1cc(O)c2c(c1)O[C@H](c1ccc(O)c(O)c1)[C@@H](O)C2 [(+)-catechin] | not the (+)-catechin, inhibit the migration of the cancer cells |  | does not affect the survival of the tumor cells | does not however make it possible to significantly decrease | no impact | inhibited | negligible
